The text below walks through data of patent US20170052170A1, “NOVEL CELL LINES AND METHODS” (priority 2009, published 2017).

The target in assay [1] is T1, umami taste receptor (T1R1/T1R3) (Homo sapiens, UniProt Q7RTX0+Q7RTX1, C757R).
T1 construct: expressed in transfected cells; host or cells: HEK293T (ATCC CRL-11268)
T1 sequence (Q7RTX1 21-841): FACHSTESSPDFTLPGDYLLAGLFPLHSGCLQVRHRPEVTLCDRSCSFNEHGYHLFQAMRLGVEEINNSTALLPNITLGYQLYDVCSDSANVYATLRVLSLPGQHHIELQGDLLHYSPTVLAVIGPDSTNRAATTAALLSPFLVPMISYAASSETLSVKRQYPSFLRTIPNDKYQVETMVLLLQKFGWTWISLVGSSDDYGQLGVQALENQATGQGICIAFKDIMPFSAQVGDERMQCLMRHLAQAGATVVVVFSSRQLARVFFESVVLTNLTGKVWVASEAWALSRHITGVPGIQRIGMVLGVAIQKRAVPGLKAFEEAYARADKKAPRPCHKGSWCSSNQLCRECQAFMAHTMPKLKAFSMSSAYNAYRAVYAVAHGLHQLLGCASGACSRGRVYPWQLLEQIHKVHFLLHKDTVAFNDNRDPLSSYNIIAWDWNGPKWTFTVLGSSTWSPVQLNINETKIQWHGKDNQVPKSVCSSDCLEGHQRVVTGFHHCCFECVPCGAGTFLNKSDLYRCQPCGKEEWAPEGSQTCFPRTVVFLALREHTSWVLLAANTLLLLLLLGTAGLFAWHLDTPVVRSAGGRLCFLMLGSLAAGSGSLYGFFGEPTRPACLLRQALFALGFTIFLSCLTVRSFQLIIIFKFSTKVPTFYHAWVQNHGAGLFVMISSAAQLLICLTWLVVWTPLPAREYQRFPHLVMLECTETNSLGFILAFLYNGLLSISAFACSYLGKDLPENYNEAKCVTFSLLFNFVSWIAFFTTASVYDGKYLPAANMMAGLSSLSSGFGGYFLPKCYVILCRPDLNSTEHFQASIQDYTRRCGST
T1 sequence (Q7RTX0 21-852 C757R): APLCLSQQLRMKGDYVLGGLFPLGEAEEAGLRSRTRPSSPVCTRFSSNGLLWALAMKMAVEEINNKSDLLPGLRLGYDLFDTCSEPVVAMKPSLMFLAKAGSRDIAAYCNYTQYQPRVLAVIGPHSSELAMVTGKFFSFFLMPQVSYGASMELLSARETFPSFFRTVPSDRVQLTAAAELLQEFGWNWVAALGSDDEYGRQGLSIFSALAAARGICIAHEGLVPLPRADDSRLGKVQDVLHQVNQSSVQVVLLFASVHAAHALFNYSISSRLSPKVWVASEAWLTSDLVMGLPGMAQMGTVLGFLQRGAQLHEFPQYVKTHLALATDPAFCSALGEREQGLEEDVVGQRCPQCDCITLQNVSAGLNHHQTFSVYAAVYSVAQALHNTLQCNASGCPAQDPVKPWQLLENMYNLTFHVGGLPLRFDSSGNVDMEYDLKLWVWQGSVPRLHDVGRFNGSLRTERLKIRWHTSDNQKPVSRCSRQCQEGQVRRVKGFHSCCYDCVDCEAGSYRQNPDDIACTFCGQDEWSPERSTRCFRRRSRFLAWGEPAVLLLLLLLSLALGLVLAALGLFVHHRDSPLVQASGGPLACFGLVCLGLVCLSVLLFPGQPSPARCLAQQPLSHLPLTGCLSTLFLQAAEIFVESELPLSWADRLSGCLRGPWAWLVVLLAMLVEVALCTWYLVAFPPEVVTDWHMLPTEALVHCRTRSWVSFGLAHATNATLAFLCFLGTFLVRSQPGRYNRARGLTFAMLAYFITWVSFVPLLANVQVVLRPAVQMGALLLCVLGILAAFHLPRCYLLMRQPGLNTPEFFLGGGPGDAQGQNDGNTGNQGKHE
The assay is described as follows: Umami cell-based calcium flux assay, HEK293T cells expressing T1R1, T1R3 and mouse Gα15. To be noted: FIG. 6; high density, coated plates, low glucose media, serum deprivation. A general note: Calcium flux is commonly read through the fluorescence of an indicator in the cells.

In assay [2] the target is T2, sweet taste receptor (T1R2/T1R3) (Homo sapiens, UniProt Q7RTX0+Q8TE23, C757R/I191V/I486V/R317G).
T2 construct: expressed in transfected cells; host or cells: HEK293T (ATCC CRL-11268)
T2 sequence (Q8TE23 20-839 I191V/R317G/I486V): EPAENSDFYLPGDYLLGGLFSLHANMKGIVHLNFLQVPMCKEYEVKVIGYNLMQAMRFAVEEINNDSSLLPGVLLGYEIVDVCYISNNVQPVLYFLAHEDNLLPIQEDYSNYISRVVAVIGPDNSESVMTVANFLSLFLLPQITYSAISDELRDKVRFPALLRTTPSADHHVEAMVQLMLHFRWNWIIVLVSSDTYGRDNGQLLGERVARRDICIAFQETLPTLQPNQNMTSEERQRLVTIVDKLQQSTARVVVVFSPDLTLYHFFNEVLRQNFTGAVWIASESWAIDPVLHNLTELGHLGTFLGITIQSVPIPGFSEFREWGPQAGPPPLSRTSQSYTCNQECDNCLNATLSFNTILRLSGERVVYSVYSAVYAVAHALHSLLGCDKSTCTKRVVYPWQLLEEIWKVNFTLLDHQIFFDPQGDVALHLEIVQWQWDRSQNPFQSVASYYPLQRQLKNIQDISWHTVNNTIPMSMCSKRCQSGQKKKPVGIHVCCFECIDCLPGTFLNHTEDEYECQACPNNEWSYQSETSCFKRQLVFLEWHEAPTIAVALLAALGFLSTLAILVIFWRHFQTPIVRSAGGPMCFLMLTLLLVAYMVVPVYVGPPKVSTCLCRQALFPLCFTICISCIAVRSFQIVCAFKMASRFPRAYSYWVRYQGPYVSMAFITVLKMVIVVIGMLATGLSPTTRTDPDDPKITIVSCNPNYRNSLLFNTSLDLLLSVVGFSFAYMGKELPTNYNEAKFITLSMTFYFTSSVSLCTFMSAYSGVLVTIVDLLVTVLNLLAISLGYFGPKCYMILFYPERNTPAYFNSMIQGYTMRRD
T2 sequence (Q7RTX0 21-852 C757R): T1 sequence (Q7RTX0 21-852 C757R)
The assay is described as follows: Sweet cell-based calcium flux assay, HEK293T cells expressing T1R2, T1R3 and mouse Gα15.
From the text: Plates are then loaded on a high throughput plate reader (Hamamatsu FDSS). […] Calcium flux is detected for 90 seconds.

Structures are written as SMILES. A value given as a limit tells only on which side of the number the result lay.

By EC50 is commonly meant the concentration at which the effect is half-maximal.

Turning to `O=C(CO)[C@@H](O)[C@H](O)[C@H](O)CO` [fructose], the “response of cells grown in the "Final" growth conditions” value in assay [1] is “not”; in assay [2] (FIG. 20, high density, coated plates, low glucose media, serum deprivation) it was “respond robustly”. Further, the EC50 in assay [2] is less than 4.3 mM.
